Measurements as given in US20100267561A1, “HERBICIDAL PYRIDAZINONE DERIVATIVES” (priority 2007, published 2010).

How the values were obtained:
[1] = test system: canola (Brassica rapa); test: Test C pre-/postemergence plant response; type: in vivo
How it was run: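 Application timings covered preemergence and postemergence (1- to 4-leaf plants, 2 to 18 cm), using a non-phytotoxic solvent mixture that included a surfactant. Controlled-environment holding lasted 15 to 25 days before visual scoring, where 100 denotes complete control and 0 no effect.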

[2] = test system: Canada horseweed (Conyza canadensis); test: Test E pre-/postemergence plant response; type: in vivo; details: Postemergence, scale 0 to 100
How it was run: (§1)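 Ratings of 0 (no effect) through 100 (complete control) came from visual evaluation against untreated plants after a 14- to 21-day greenhouse period. Compound in a non-phytotoxic solvent/surfactant mixture was applied preemergence to seeds and postemergence to plants at the 1- to 4-leaf stage.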

[3] = test system: Russian thistle (Salsola kali); test: Test E pre-/postemergence plant response; type: in vivo; details: 31 g ai/ha, Preemergence, scale 0 to 100
How it was run: as §1

[4] = test system: Virginia (V.) dayflower (Commelina virginica); test: Test E pre-/postemergence plant response; type: in vivo; details: scale 0 to 100
How it was run: as §1

[5] = test system: common ragweed (Ambrosia elation); test: Test E pre-/postemergence plant response; type: in vivo; details: scale 0 to 100
How it was run: as §1

[6] = test system: common sowthistle (Sonchus oleraceous); test: Test E pre-/postemergence plant response; type: in vivo; details: scale 0 to 100
How it was run: as §1

[7] = test system: field bindweed (Convolvulus arvensis); test: Test E pre-/postemergence plant response; type: in vivo; details: scale 0 to 100
How it was run: as §1

[8] = test system: kochia (Kochia scoparia); test: Test E pre-/postemergence plant response; type: in vivo; details: scale 0 to 100
How it was run: as §1

[9] = test system: prickly sida (Sida spinosa); test: Test E pre-/postemergence plant response; type: in vivo; details: scale 0 to 100
How it was run: as §1

[10] = test system: spanishneedles (Bidens bipinnata); test: Test E pre-/postemergence plant response; type: in vivo; details: scale 0 to 100
How it was run: as §1

## CCc1cc(-c2ccc(C(F)(F)F)cc2)nn1-c1c(O)cnn(C)c1=O [Compound 11, 4-[5-ethyl-3-[4-(trifluoromethyl)phenyl]-1H-pyrazol-1-yl]-5-hydroxy-2-methyl-3(2H)-pyridazinone]
[1]; Postemergence, 8 g ai/ha, scale 0 to 100, 0 no effect, 100 complete control
  Plant response rating, Canola: 0
[1]; Postemergence, 16 g ai/ha, scale 0 to 100, 0 no effect, 100 complete control
  Plant response rating, Canola: 0
[1]; Postemergence, 31 g ai/ha, scale 0 to 100, 0 no effect, 100 complete control
  Plant response rating, Canola: 0
[1]; Postemergence, 62 g ai/ha, scale 0 to 100, 0 no effect, 100 complete control
  Plant response rating, Canola: 0
[1]; Preemergence, 8 g ai/ha, scale 0 to 100 (0 no effect, 100 complete control)
  Plant response rating, Canola: 0
[1]; Preemergence, 16 g ai/ha, scale 0 to 100 (0 no effect, 100 complete control)
  Plant response rating, Canola: 0
[1]; Preemergence, 31 g ai/ha, scale 0 to 100 (0 no effect, 100 complete control)
  Plant response rating, Canola: 0
[1]; Preemergence, 62 g ai/ha, scale 0 to 100, 0 no effect, 100 complete control
  Plant response rating, Canola: 0
[2]; 4 g ai/ha
  Plant response rating, Horseweed: 0
[2]; 8 g ai/ha
  Plant response rating, Horseweed: 0
[2]; 16 g ai/ha
  Plant response rating, Horseweed: 0
[2]; 31 g ai/ha
  Plant response rating, Horseweed: 0
[3]
  Plant response rating, Thistle, Russian: 0
[4]; 4 g ai/ha, Postemergence
  Plant response rating, Dayflower, V.: 0
[4]; 8 g ai/ha, Preemergence
  Plant response rating, Dayflower, V.: 0
[4]; 16 g ai/ha, Preemergence
  Plant response rating, Dayflower, V.: 0
[4]; 31 g ai/ha, Preemergence
  Plant response rating, Dayflower, V.: 0
[4]; Postemergence, 8 g ai/ha
  Plant response rating, Dayflower, V.: 0
[4]; Postemergence, 16 g ai/ha
  Plant response rating, Dayflower, V.: 0
[4]; Postemergence, 31 g ai/ha
  Plant response rating, Dayflower, V.: 0
[4]; Preemergence, 4 g ai/ha
  Plant response rating, Dayflower, V.: 0
[5]; 4 g ai/ha, Postemergence
  Plant response rating, Ragweed: 0
[5]; 16 g ai/ha, Preemergence
  Plant response rating, Ragweed: 0
[5]; 31 g ai/ha, Preemergence
  Plant response rating, Ragweed: 0
[5]; Postemergence, 8 g ai/ha
  Plant response rating, Ragweed: 0
[5]; Postemergence, 16 g ai/ha
  Plant response rating, Ragweed: 0
[5]; Postemergence, 31 g ai/ha
  Plant response rating, Ragweed: 0
[5]; Preemergence, 4 g ai/ha
  Plant response rating, Ragweed: 0
[6]; 4 g ai/ha, Postemergence
  Plant response rating, Sowthistle: 0
[6]; 16 g ai/ha, Preemergence
  Plant response rating, Sowthistle: 0
[6]; Postemergence, 8 g ai/ha
  Plant response rating, Sowthistle: 0
[6]; Postemergence, 16 g ai/ha
  Plant response rating, Sowthistle: 0
[6]; Postemergence, 31 g ai/ha
  Plant response rating, Sowthistle: 0
[7]; 4 g ai/ha, Postemergence
  Plant response rating, Field Bindweed: 0
[7]; 8 g ai/ha, Preemergence
  Plant response rating, Field Bindweed: 0
[7]; 16 g ai/ha, Preemergence
  Plant response rating, Field Bindweed: 0
[7]; 31 g ai/ha, Preemergence
  Plant response rating, Field Bindweed: 0
[7]; Postemergence, 8 g ai/ha
  Plant response rating, Field Bindweed: 0
[7]; Postemergence, 16 g ai/ha
  Plant response rating, Field Bindweed: 0
[7]; Postemergence, 31 g ai/ha
  Plant response rating, Field Bindweed: 0
[7]; Preemergence, 4 g ai/ha
  Plant response rating, Field Bindweed: 0
[8]; 4 g ai/ha, Postemergence
  Plant response rating, Kochia: 0
[8]; 16 g ai/ha, Preemergence
  Plant response rating, Kochia: 0
[8]; 31 g ai/ha, Preemergence
  Plant response rating, Kochia: 0
[8]; Postemergence, 8 g ai/ha
  Plant response rating, Kochia: 0
[8]; Postemergence, 16 g ai/ha
  Plant response rating, Kochia: 0
[8]; Postemergence, 31 g ai/ha
  Plant response rating, Kochia: 0
[8]; Preemergence, 4 g ai/ha
  Plant response rating, Kochia: 0
[9]; 4 g ai/ha, Postemergence
  Plant response rating, Prickly Sida: 0
[9]; 16 g ai/ha, Preemergence
  Plant response rating, Prickly Sida: 0
[9]; 31 g ai/ha, Preemergence
  Plant response rating, Prickly Sida: 0
[9]; Postemergence, 8 g ai/ha
  Plant response rating, Prickly Sida: 0
[9]; Postemergence, 16 g ai/ha
  Plant response rating, Prickly Sida: 0
[9]; Postemergence, 31 g ai/ha
  Plant response rating, Prickly Sida: 0
[9]; Preemergence, 4 g ai/ha
  Plant response rating, Prickly Sida: 0
[10]; 4 g ai/ha, Postemergence
  Plant response rating, Spanishneedles: 0
[10]; 16 g ai/ha, Preemergence
  Plant response rating, Spanishneedles: 0
[10]; 31 g ai/ha, Preemergence
  Plant response rating, Spanishneedles: 0
[10]; Postemergence, 8 g ai/ha
  Plant response rating, Spanishneedles: 0
[10]; Postemergence, 16 g ai/ha
  Plant response rating, Spanishneedles: 0
[10]; Postemergence, 31 g ai/ha
  Plant response rating, Spanishneedles: 0
[10]; Preemergence, 4 g ai/ha
  Plant response rating, Spanishneedles: 0
other
  melting point: 202 to 204 °C
